From PubChem BioAssay AID2060488 (Molecular Pharmacology Branch, DTP, NCI, 2025)

Test system: 966289-007-R4-J1-PDC complex spheroid viability
Assay: Anticancer human tumor 966289-007-R4-J1-PDC patient-derived pancreatic adenocarcinoma cell line growth inhibition [GQUAD]
Conditions: for IC50: curve of first compound; for viability, T/C: stronger effect = lower value; active = viability on the fitted dose curve at most 10% of control; inactive = the rest
Method in brief: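 Tumor cells were grown as complex spheroids with HUVEC endothelial cells and mesenchymal stem cells as stroma. G-quadruplex stabilizers were combined with targeted agents over half-log dilutions from near the clinical Cmax, or from 10 microM.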

[1] = second compound 0.0316 µM, first compound 0.0316 µM
[2] = second compound 0.0316 µM, first compound 0.1 µM
[3] = second compound 0.0316 µM, first compound 0.316 µM
[4] = second compound 0.0316 µM, first compound 1 µM
[5] = second compound 0.0316 µM, first compound 3.16 µM
[6] = second compound 0.0316 µM, first compound 10 µM
[7] = second compound 0.1 µM, first compound 0.0316 µM
[8] = second compound 0.1 µM, first compound 0.1 µM
[9] = second compound 0.1 µM, first compound 0.316 µM
[10] = second compound 0.1 µM, first compound 1 µM
[11] = second compound 0.1 µM, first compound 3.16 µM
[12] = second compound 0.1 µM, first compound 10 µM
[13] = second compound 0.316 µM, first compound 0.0316 µM
[14] = second compound 0.316 µM, first compound 0.1 µM
[15] = second compound 0.316 µM, first compound 0.316 µM
[16] = second compound 0.316 µM, first compound 1 µM
[17] = second compound 0.316 µM, first compound 3.16 µM
[18] = second compound 0.316 µM, first compound 10 µM
[19] = second compound 1 µM, first compound 0.0316 µM
[20] = second compound 1 µM, first compound 0.1 µM
[21] = second compound 1 µM, first compound 0.316 µM
[22] = second compound 1 µM, first compound 1 µM
[23] = second compound 1 µM, first compound 3.16 µM
[24] = second compound 1 µM, first compound 10 µM
[25] = second compound 3.16 µM, first compound 0.0316 µM
[26] = second compound 3.16 µM, first compound 0.1 µM
[27] = second compound 3.16 µM, first compound 0.316 µM
[28] = second compound 3.16 µM, first compound 1 µM
[29] = second compound 3.16 µM, first compound 3.16 µM
[30] = second compound 3.16 µM, first compound 10 µM
[31] = second compound 10 µM, first compound 0.0316 µM
[32] = second compound 10 µM, first compound 0.1 µM
[33] = second compound 10 µM, first compound 0.316 µM
[34] = second compound 10 µM, first compound 1 µM
[35] = second compound 10 µM, first compound 3.16 µM
[36] = second compound 10 µM, first compound 10 µM
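Note: spheroids exposed to the agents for seven days before readout.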
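Throughout, for viability, T/C: percent viability relative to DMSO vehicle control wells taken as 100%.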

C=CCn1c(=O)c2cnc(Nc3ccc(N4CCN(C)CC4)cc3)nc2n1-c1cccc(C(C)(C)O)n1 + Cc1[nH]c2ccc(F)cc2c1-c1nc2c3cccnc3c3ncccc3c2[nH]1
1830 nM: IC50 (second compound 0.0316 µM) | IC50 (second compound 0.1 µM)
inactive: viability, T/C [1] 101% | viability, T/C [2] 96.7% | viability, T/C [3] 112% | viability, T/C [4] 99.7% | viability, T/C [7] 99.5% | viability, T/C [8] 98.9% | viability, T/C [9] 110% | viability, T/C [10] 99.9% | viability, T/C [13] 97.5% | viability, T/C [14] 103% | viability, T/C [15] 111% | viability, T/C [16] 98% | viability, T/C [19] 95.7% | viability, T/C [20] 98.3% | viability, T/C [21] 111% | viability, T/C [22] 100% | viability, T/C [25] 102% | viability, T/C [26] 109% | viability, T/C [27] 109% | viability, T/C [28] 92.9% | viability, T/C [31] 106% | viability, T/C [32] 107% | viability, T/C [33] 109% | viability, T/C [34] 93.5%
1760 nM: IC50 (second compound 3.16 µM) | IC50 (second compound 10 µM)
1850 nM: IC50 (second compound 1 µM)
active: viability, T/C [5] 4.85% | viability, T/C [6] 1.9% | viability, T/C [11] 4.92% | viability, T/C [12] 2.17% | viability, T/C [17] 7.35% | viability, T/C [18] 1.74% | viability, T/C [23] 6.22% | viability, T/C [24] 2% | viability, T/C [29] 5.37% | viability, T/C [30] 2.62% | viability, T/C [35] 4.68% | viability, T/C [36] 2.33%
1840 nM: IC50 (second compound 0.316 µM)

CC(C)(O)C1CCC(Nc2ccc3ncc(-c4cccc(C(F)(F)F)c4)n3n2)CC1 (stereo unspecified) + Cc1[nH]c2ccc(F)cc2c1-c1nc2c3cccnc3c3ncccc3c2[nH]1
2370 nM: IC50 (second compound 10 µM)
2470 nM: IC50 (second compound 1 µM)
3110 nM: IC50 (second compound 0.1 µM)
2500 nM: IC50 (second compound 3.16 µM)
inactive: viability, T/C [1] 108% | viability, T/C [2] 105% | viability, T/C [3] 109% | viability, T/C [4] 89% | viability, T/C [5] 71.7% | viability, T/C [6] 55.3% | viability, T/C [7] 104% | viability, T/C [8] 100% | viability, T/C [9] 99.8% | viability, T/C [10] 93.2% | viability, T/C [11] 47.5% | viability, T/C [12] 51.3% | viability, T/C [13] 101% | viability, T/C [14] 111% | viability, T/C [15] 102% | viability, T/C [16] 105% | viability, T/C [17] 40.7% | viability, T/C [18] 52.6% | viability, T/C [19] 106% | viability, T/C [20] 106% | viability, T/C [21] 98.9% | viability, T/C [22] 110% | viability, T/C [23] 28.9% | viability, T/C [24] 41% | viability, T/C [25] 104% | viability, T/C [26] 107% | viability, T/C [27] 113% | viability, T/C [28] 113% | viability, T/C [29] 22.5% | viability, T/C [30] 47.1% | viability, T/C [31] 97.1% | viability, T/C [32] 111% | viability, T/C [33] 112% | viability, T/C [34] 109% | viability, T/C [35] 26.2% | viability, T/C [36] 35.4%
2960 nM: IC50 (second compound 0.316 µM)
> 10000 nM: IC50 (second compound 0.0316 µM)

CCCS(=O)(=O)Nc1ccc(F)c(C(=O)c2c[nH]c3ncc(-c4ccc(Cl)cc4)cc23)c1F + Cc1[nH]c2ccc(F)cc2c1-c1nc2c3cccnc3c3ncccc3c2[nH]1
inactive: viability, T/C [1] 111% | viability, T/C [2] 105% | viability, T/C [3] 116% | viability, T/C [4] 113% | viability, T/C [5] 113% | viability, T/C [6] 46.3% | viability, T/C [7] 101% | viability, T/C [8] 110% | viability, T/C [9] 113% | viability, T/C [10] 112% | viability, T/C [11] 111% | viability, T/C [12] 40.5% | viability, T/C [13] 101% | viability, T/C [14] 108% | viability, T/C [15] 110% | viability, T/C [16] 114% | viability, T/C [17] 112% | viability, T/C [18] 39.3% | viability, T/C [19] 97.6% | viability, T/C [20] 112% | viability, T/C [21] 115% | viability, T/C [22] 114% | viability, T/C [23] 116% | viability, T/C [24] 41.4% | viability, T/C [25] 110% | viability, T/C [26] 114% | viability, T/C [27] 115% | viability, T/C [28] 110% | viability, T/C [29] 108% | viability, T/C [30] 27.6% | viability, T/C [31] 104% | viability, T/C [32] 111% | viability, T/C [33] 115% | viability, T/C [34] 112% | viability, T/C [35] 112% | viability, T/C [36] 33.5%
8670 nM: IC50 (second compound 1 µM)
9390 nM: IC50 (second compound 0.0316 µM)
8400 nM: IC50 (second compound 0.316 µM)
8560 nM: IC50 (second compound 0.1 µM)
7830 nM: IC50 (second compound 10 µM)
7250 nM: IC50 (second compound 3.16 µM)
